Source: PubChem BioAssay (NCI)
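Following 48 hours of exposure in 96-well plates, responses at five concentrations were used to interpolate endpoints linearly. Here, GI50 denotes the concentration required for 50% inhibition of growth. Definition used: TGI = concentration required for complete inhibition of growth.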

Key:
Test in all cases: NCI anticancer screen, dose series, 48 h
MDA-MB-435 = tested on: MDA-MB-435
SNB-19 CNS = tested on: SNB-19 CNS
HOP-62 NSCLC = tested on: HOP-62 NSCLC
OVCAR-3 ovarian = tested on: OVCAR-3 ovarian
CCRF-CEM leukemia = tested on: CCRF-CEM leukemia
PC-3 prostate = tested on: PC-3 prostate
KM12 colon = tested on: KM12 colon
HL-60(TB) leukemia = tested on: HL-60(TB) leukemia
EKVX NSCLC = tested on: EKVX NSCLC
CAKI-1 renal = tested on: CAKI-1 renal
UO-31 renal = tested on: UO-31 renal
HS 578T breast = tested on: HS 578T breast
OVCAR-4 ovarian = tested on: OVCAR-4 ovarian
NCI-H23 lung = tested on: NCI-H23 lung
NCI-H226 lung = tested on: NCI-H226 lung
SK-MEL-28 melanoma = tested on: SK-MEL-28 melanoma
NCI-H460 lung = tested on: NCI-H460 lung
HOP-92 NSCLC = tested on: HOP-92 NSCLC
MALME-3M melanoma = tested on: MALME-3M melanoma
T-47D breast = tested on: T-47D breast
HCT-116 colon = tested on: HCT-116 colon
786-0 renal = tested on: 786-0 renal
TK-10 renal = tested on: TK-10 renal
OVCAR-8 ovarian = tested on: OVCAR-8 ovarian
NCI-H522 lung = tested on: NCI-H522 lung
U251 CNS = tested on: U251 CNS
SK-OV-3 ovarian = tested on: SK-OV-3 ovarian
SR leukemia = tested on: SR leukemia
A549 NSCLC = tested on: A549 NSCLC

`COc1ccc(-c2nc(S(=O)(=O)c3ccc(C)cc3)c(S(C)(=O)=O)o2)cc1` gave a GI50 (MDA-MB-435) of 5.3 µM, a TGI (MDA-MB-435) of 19.6 µM and a GI50 (SNB-19 CNS) of 15.1 µM. The TGI (SNB-19 CNS) was 28.3 µM, the GI50 (HOP-62 NSCLC) was 20.2 µM and the TGI (HOP-62 NSCLC) was 40 µM. For the same molecule, the GI50 (OVCAR-3 ovarian) was 1.83 µM, the TGI (OVCAR-3 ovarian) was 3.37 µM and the GI50 (CCRF-CEM leukemia) was 2.38 µM. It also gave a TGI (CCRF-CEM leukemia) of 6.43 µM, a GI50 (PC-3 prostate) of 11.1 µM and a TGI (PC-3 prostate) of 25.6 µM. For the same molecule, the GI50 (KM12 colon) was 16.2 µM, the TGI (KM12 colon) was 32.2 µM and the GI50 (HL-60(TB) leukemia) was 1.8 µM. The TGI (HL-60(TB) leukemia) was 6.14 µM, the GI50 (EKVX NSCLC) was 11 µM and the TGI (EKVX NSCLC) was 25.4 µM. It also gave a GI50 (CAKI-1 renal) of 2.82 µM, a TGI (CAKI-1 renal) of 9.83 µM and a GI50 (UO-31 renal) of 3.43 µM. It also gave a TGI (UO-31 renal) of 15.3 µM, a GI50 (HS 578T breast) of 5.35 µM and a TGI (HS 578T breast) of 34 µM. The GI50 (OVCAR-4 ovarian) was 3.1 µM, the TGI (OVCAR-4 ovarian) was 11.1 µM and the GI50 (NCI-H23 lung) was 5.57 µM. It also gave a TGI (NCI-H23 lung) of 19.1 µM, a GI50 (NCI-H226 lung) of 16.9 µM and a TGI (NCI-H226 lung) of 38.5 µM. The GI50 (SK-MEL-28 melanoma) was 3.2 µM, the TGI (SK-MEL-28 melanoma) was 11 µM and the GI50 (NCI-H460 lung) was 10.1 µM. The TGI (NCI-H460 lung) was 24.1 µM, the GI50 (HOP-92 NSCLC) was 3.03 µM and the TGI (HOP-92 NSCLC) was 11.6 µM. The GI50 (MALME-3M melanoma) was 1.45 µM, the TGI (MALME-3M melanoma) was 2.79 µM and the GI50 (T-47D breast) was 2.03 µM. For the same molecule, the TGI (T-47D breast) was 4.55 µM, the GI50 (HCT-116 colon) was 1.78 µM and the TGI (HCT-116 colon) was 3.34 µM. For the same molecule, the GI50 (786-0 renal) was 1.64 µM, the TGI (786-0 renal) was 3.47 µM and the GI50 (TK-10 renal) was 7.76 µM. The TGI (TK-10 renal) was 21 µM, the GI50 (OVCAR-8 ovarian) was 10.5 µM and the TGI (OVCAR-8 ovarian) was 27.1 µM. For the same molecule, the GI50 (NCI-H522 lung) was 1.66 µM, the TGI (NCI-H522 lung) was 3.28 µM and the GI50 (U251 CNS) was 17 µM. For the same molecule, the TGI (U251 CNS) was 31.7 µM, the GI50 (SK-OV-3 ovarian) was 18.5 µM and the TGI (SK-OV-3 ovarian) was 35.1 µM. The GI50 (SR leukemia) was 2.83 µM, the TGI (SR leukemia) was greater than 100 µM and the GI50 (A549 NSCLC) was 18.9 µM. It also gave a TGI (A549 NSCLC) of 39.4 µM.
